Structures can show the parent of a compound that is named as a salt.
Columns and labels:
dd strain male mice [1] = experiment: Analgesic activity test: acetic acid-induced stretching method; type: in vivo; conditions: Mus musculus, oral, 30 min before 0.6% acetic acid i.p., 95% confidence limits in parentheses on the next line
Experimental: (§1) The results of analgesic activity test and acute toxicity test performed on the compounds of this invention and aminopyrin as control are as described below.
Groups of each 10 dd strain male mice (about 18 g in body weight) were used for the test. Each mouse was orally administered with the drug being tested. Thirty minutes after the administration, 0.1 ml/10 g of a 0.6% acetic acid solution was intraperitoneously injected. […] The percentage effectiveness was determined by the formula [formula] From the effectiveness data, the median effective dose (ED50) and its 95% confidence limits were calculated by the method of Litchfield-Wilcoxon.

dd strain male mice [2] = experiment: Acute toxicity test; type: in vivo; conditions: 72 hours
Source text: as §1
(§2) Groups of each 4-6 dd strain male mice (about 19 g in body weight) were used for the test. […] When the median lethal dose was not obtainable, the dose (mg/kg) and the ratio (number of dead animals)/(number of test animals) were shown in Table 2.

dd strain male mice [3] = experiment: Analgesic activity test: modified Haffner method; type: in vivo; conditions: 30 min before 2 mg/kg morphine hydrochloride s.c., tail clamp, 95% confidence limits in parentheses; for ED50: Mus musculus
Experimental: as §1
Groups of each 10 dd strain male mice (about 19 g in body weight) were used for the test. Thirty minutes after the oral administration of the drug under test, 2 mg/kg of morphine hydrochloride was subcutaneously injected. After 15 minutes, the basal part of the mouse tail was clamped with Kocher's forcepts four times at each time interval of 15 minutes to observe the pain reaction of each mouse. The percentage effectiveness was calculated by the formula [formula] From the effectiveness data, the median effective dose (ED50) and its 95% confidence limits were calculated by the method of Litchfield-Wilcoxon.

Acute toxicity test = type: in vivo, mice; conditions: mouse, in vivo; oral, 72 hours of observation; dd strain male mice; 95% confidence limits in parentheses on the next line
Source text: as §1, §2

Row | SMILES | ED50 (dd strain male mice [1]) [mg/kg] | Acute toxicity, (number of dead animals)/(number of test animals) (dd strain male mice [2]; 250 mg/kg oral) | Acute toxicity, (number of dead animals)/(number of test animals) (dd strain male mice [2]; 500 mg/kg oral) | Acute toxicity, (number of dead animals)/(number of test animals) (dd strain male mice [2]; 1000 mg/kg oral) | ED50 (dd strain male mice [3]; po) [mg/kg] | Analgesic activity, ED50, Haffner method (dd strain male mice [3]; oral) [mg/kg] | LD50 at 72 h (Acute toxicity test) [mg/kg] | Acute toxicity, (number of dead animals)/(number of test animals) (dd strain male mice [2]; 100 mg/kg (so in the source) oral) | ED50 (dd strain male mice [3]; oral) [mg/kg]
1 | Cl.Cl.Fc1ccc(N2CCN(CC3CC3)CC2)cc1 [Compound 2, 1-(cyclopropylmethyl)-4-(4-fluorophenyl)piperazine dihydrochloride] | 9.4 | 1/6 | 5/6 | 6/6 | 13.2 | – | – | – | –
2 | Clc1ccc(N2CCN(CC3CC3)CC2)cc1Cl [Compound 5] | 17.2 | 0/6 | 2/6 | 6/6 | 7.2 | – | – | – | –
3 | FC(F)(F)c1cccc(N2CCN(CC3CC3)CC2)c1 [Compound 7] | – | 0/6 | 2/6 | 6/6 | 5.5 | – | – | – | –
4 | FC(F)(F)c1cccc(N2CCN(CC3CC3)CC2)c1 [Compound 9] | – | 0/6 | 3/6 | 6/6 | – | 4.9 | – | – | –
5 | FC(F)(F)c1cc(N2CCN(CC3CC3)CC2)ccc1Cl [Compound 11] | 20.2 | 0/6 | 5/6 | 6/6 | 5.8 | – | – | – | –
6 | C=CCN1CCN(c2cccc(C(F)(F)F)c2)CC1.Cl.Cl [Compound 14, 1-Allyl-4-(3-trifluoromethylphenyl)piperazine dihydrochloride] | 13.6 | 0/6 | 4/6 | 6/6 | 7 | – | – | – | –
7 | Cc1c(N(C)C)c(=O)n(-c2ccccc2)n1C [Aminopyrin, aminopyrin, reference compound] | 63 | – | – | – | 65 | – | 750 | – | –
8 | Clc1ccc(N2CCN(CC3CC3)CC2)cc1 [Compound 4] | 17.9 | 0/6 | 5/6 | 6/6 | 6.3 | – | – | – | –
9 | Fc1ccccc1N1CCN(CC2CC2)CC1 [Compound 1] | 12.6 | 2/6 | 3/6 | – | 11 | – | – | 6/6 | –
10 | CC(C)N1CCN(c2cccc(C(F)(F)F)c2)CC1 [Compound 12, 1-(3-trifluoromethyl)-4-isopropylpiperazine dihydrochloride] | 4.2 | 0/6 | 6/6 | 6/6 | 4.9 | – | – | – | –
11 | Clc1cccc(N2CCN(CC3CC3)CC2)c1 [Compound 3] | – | 0/6 | 2/6 | 6/6 | 13.8 | – | – | – | –
12 | FC(F)(F)c1cccc(N2CCN(CC3CC3)CC2)c1.O=C(O)CC(O)(CC(=O)O)C(=O)O [Compound 10, 1-(Cyclopropylmethyl)-4-(3-trifluoromethylphenyl)piperazine citrate] | 8.7 | 0/6 | 2/6 | 6/6 | – | – | – | – | 2.5
13 | Cl.Cl.FC(F)(F)c1cccc(N2CCN(CC3CC3)CC2)c1 [Compound 6, 1-(cyclopropylmethyl)-4-(3-trifluoromethylphenyl)piperazine dihydrochloride] | 2.8 | 0/6 | 4/6 | 6/6 | 3.7 | – | – | – | –

Source: US4518712A, “Piperazine derivative and analgesic composition containing the same” (priority 1980, dated 1985)
